Experimental data published in ChEMBL document CHEMBL1129394, “Studies on selectin blocker. 3. Investigation of the carbohydrate ligand sialyl Lewis X recognition site of P-selectin” (J Med Chem, 1996).

Target: T1, P-selectin (Homo sapiens, UniProt P16109)
T1 sequence (P16109 whole entry): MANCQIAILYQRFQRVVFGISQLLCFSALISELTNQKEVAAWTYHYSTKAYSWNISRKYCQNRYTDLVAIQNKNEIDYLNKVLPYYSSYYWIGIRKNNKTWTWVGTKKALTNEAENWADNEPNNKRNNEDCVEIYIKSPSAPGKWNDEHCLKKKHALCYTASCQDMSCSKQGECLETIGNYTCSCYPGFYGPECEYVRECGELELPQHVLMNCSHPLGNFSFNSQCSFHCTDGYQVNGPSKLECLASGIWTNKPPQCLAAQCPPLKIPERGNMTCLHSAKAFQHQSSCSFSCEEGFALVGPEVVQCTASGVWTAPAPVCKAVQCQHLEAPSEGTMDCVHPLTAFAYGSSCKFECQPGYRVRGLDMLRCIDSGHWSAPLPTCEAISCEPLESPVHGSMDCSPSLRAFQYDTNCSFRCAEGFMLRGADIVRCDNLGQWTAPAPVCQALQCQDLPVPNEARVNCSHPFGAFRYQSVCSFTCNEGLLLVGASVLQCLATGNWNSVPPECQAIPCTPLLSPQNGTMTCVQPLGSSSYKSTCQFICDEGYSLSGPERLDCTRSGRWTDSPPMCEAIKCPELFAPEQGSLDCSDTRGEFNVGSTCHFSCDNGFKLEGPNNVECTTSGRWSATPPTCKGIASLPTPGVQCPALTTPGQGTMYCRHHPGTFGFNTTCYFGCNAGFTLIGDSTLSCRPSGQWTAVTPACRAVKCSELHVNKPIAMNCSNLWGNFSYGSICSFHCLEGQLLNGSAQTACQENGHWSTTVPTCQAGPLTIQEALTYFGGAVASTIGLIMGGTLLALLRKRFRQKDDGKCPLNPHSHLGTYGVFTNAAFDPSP
Test: Blocking activity on Selectin P ligand binding

- IC50: > 1000 µM
SMILES: CC(=O)N[C@H]1[C@H]([C@H](O)[C@H](O)CO)O[C@@](O[C@H]2[C@@H](O)[C@@H](CO)O[C@@H](O[C@@H]([C@H](O[C@@H]3O[C@@H](C)[C@@H](O)[C@@H](O)[C@@H]3O)[C@H](C=O)NC(C)=O)[C@H](O)CO)[C@@H]2O)(C(=O)O)C[C@@H]1O [SIALYL LEWIS X]
